Entries after “also recorded” stand apart in the source; their conditions may differ. Where no end group is shown, it is not given here.
Key:
[1] = tested on: adult mdx FDB myofibers; assay: Stretch-induced ROS production (X-ROS), DCF fluorescence, 10% axial stretch (MuST); assay type: cell-based, mouse; settings: adult mdx FDB fibers, 10% stretch, gp91dsTAT 2 μM, fulvene-5 5 μM, L-NAME 1 mM, colchicine, nocodozole, latrunculin A 10 μM
Experimental: After euthanasia by CO2 inhalation, flexor digitorum brevis (FDB) muscle was harvested bilaterally and incubated in DMEM with 1 μl/ml gentamicin, and 0.4% collagenase A (Roche Applied Science, Indianapolis, Ind., USA) as described. Single intact myofibers were isolated by gentle trituration. The fibers were imaged and/or fixed for immunolabeling within an 8-h period (unless indicated), thus avoiding morphological changes that can occur in FDB fibers that are cultured for a prolonged period.
All experiments were performed in custom rotating glass-bottom chamber (Four-hour Day Foundation, Towson, Md.) equipped with bath perfusion and mounted on BioRad Radiance fluorescent laser scanning confocal attached to an Olympus IX-70 inverted microscope (Olympus Corp., Centre Valley, Pa.). Cells were attached using micro-tweezers coated with the biological adhesive, MyoTak (Ionoptix, Milton, Mass.) and connected to a high-sensitivity force transducer (KG7) equipped with an anti-oscillation filter and a piezo-electric length controller (World Precision Instruments, Sarasota, Fla.). The force transducer and length controller were mounted on folded motorized micromanipulators (Siskiyou, Grants Pass, Oreg.) allowing to place the tweezers above the cell of interest. The rotating chamber, the tweezer-equipped force transducer and length controller and the micromanipulators formed the Muscle Stretch Tool (MUST).
(§1) Myofibers were attached at both ends by gently closing the MyoTak-coated tweezers without compressing the cell membrane and then lifting the cell from the bottom of the chamber. Cell sarcomere length was monitored using a High-speed Video Sarcomere Length camera (Aurora Scientific, Aurora, ON, CAN) and the voltage into the length controller was adjusted to produce a stretch equal to 10% of resting sarcomere length. The tension signal from the force transducer and positional output from the length controller were recorded at 1 kHz using a 600A data acquisition system from Aurora.
ROS was measured using 6-carboxy-2″,7″-dichlorodihydrofluorescein diacetate (DCFH-DA) (Invitrogen, Carlsbad, Calif.) in dimethyl sulfoxide (DMSO). FDB fibers were suspended in HEPES-buffered Ringer's solution containing (in mM): 140 NaCl, 4.0 KCl, 1.0 MgSO4, 5.0 NaHCO3, 10.0 glucose, 10.0 HEPES at pH 7.3 and incubated with Ringer's solution containing DCFH-DA (10 μM) for 30 minutes at room temperature. DCF-loaded cells were mounted on MUST and imaged using confocal line-scanning microscopy at 2 ms/line with very low laser intensity to prevent artifactual amplification of the signal due to light oxidation. DCF fluorescence signals were processed as described (16). The NOX2 specific inhibitor gp91dsTAT (2 μM), NOX inhibitor fulvene-5 (5 μM) and nitric oxide synthase inhibitor L-NAME (1 mM) was used to verify the source of ROS. Interrogation of cytoskeletal involvement in stretch dependent ROS or Ca^2+ influx was done with pharmacological methods.

[2] = tested on: adult mdx mice; assay: In vitro isometric contraction-induced injury of EDL muscle after in vivo treatment; design: species or system mouse; settings: mdx mice treated in vivo (colchicine 1 mg/kg IP 4 hours; apocynin 3 mg/kg IP 3 days), 20 isometric contractions
Experimental: Following CO2 asphyxiation and cervical dislocation, single EDL muscles were surgically excised with ligatures at each tendon (5-0 silk suture) and mounted in an in vitro bath between a fixed post and force transducer (Aurora 300B-LR) operated in isometric mode. The muscle was maintained in physiological saline solution and maintained at 30° C. under aeration with 95 O2/5 CO2 (%) throughout the experiment. Resting tension, muscle length and stimulation current were iteratively adjusted for each muscle to obtain optimal twitch force. During a 5 minute equilibration, single twitches were elicited at every 30 seconds with electrical pulses (0.5 msec) through platinum electrodes running parallel to the muscle. The injury protocol used to induce a force deficit (39) consisted of 20 maximum isometric contractions (1 sec at 100 Hz) separated by 1 minute. The absolute isometric force of each muscle during the contraction protocol was normalized to the maximum isometric force (Po) produced by the muscle during the 20-contraction protocol.

[3] = tested on: wild-type (WT) mice; assay: In vivo eccentric contraction-induced injury in wild-type mice (gastrocnemius); design: species or system mouse
Experimental: WT mice were treated in vivo with either vehicle, or a combination of colchicine and apocynin. Following treatment, the gastrocnemius muscle was assayed for susceptibility to in vivo eccentric contraction injury.
(§2) Anaesthetized mice (isoflurane) were placed on a thermostatically controlled table, the knee was fixed with a pin and the foot was firmly fixed to a footplate on the motor shaft. Contraction was elicited by percutaneous electrical stimulation of the sciatic nerve. Optimal isometric tetanic torque was determined with increasing current with a minimum of 30 s between each contraction to avoid fatigue. Eccentric contractions at maximal isometric torque (0.2 ms pulse train at 100 Hz) were assayed for the resistance to muscle damage.
Eccentric contractions were achieved by lengthening the muscle during maximal contraction. This was achieved by translating the footplate 30° at a velocity of 40 mm/s following the first 200 msec of the isometric contraction. This protocol consisted of 20 eccentric contractions with 1 minute pauses in between. The decrease in the peak isometric force prior to the eccentric phase was taken as an indication for muscle damage.

[4] = target: T1, NOX (Homo sapiens, UniProt P04839); settings: in muscle; apocynin or its oxidation products; cited from earlier work
T1 construct: host or cells: muscle
T1 sequence (P04839 1-570): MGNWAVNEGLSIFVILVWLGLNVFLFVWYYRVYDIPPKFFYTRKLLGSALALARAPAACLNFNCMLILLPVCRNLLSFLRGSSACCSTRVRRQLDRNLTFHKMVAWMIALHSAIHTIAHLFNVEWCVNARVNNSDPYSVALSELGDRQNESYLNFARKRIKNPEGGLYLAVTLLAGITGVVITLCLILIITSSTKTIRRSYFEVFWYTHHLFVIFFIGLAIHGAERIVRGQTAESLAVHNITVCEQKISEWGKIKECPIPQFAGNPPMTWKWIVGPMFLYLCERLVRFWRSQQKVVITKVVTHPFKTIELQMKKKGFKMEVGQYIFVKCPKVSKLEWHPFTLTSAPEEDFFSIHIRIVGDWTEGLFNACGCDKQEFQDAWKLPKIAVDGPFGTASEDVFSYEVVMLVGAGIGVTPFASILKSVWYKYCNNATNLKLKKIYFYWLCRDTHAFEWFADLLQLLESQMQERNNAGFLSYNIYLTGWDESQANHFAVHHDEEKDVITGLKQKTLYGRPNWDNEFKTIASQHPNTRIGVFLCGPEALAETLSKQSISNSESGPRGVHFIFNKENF

[5] = tested on: adult mdx mice; assay: In vivo eccentric contraction-induced injury in mdx; settings: for eccentric contraction induced force loss: colchicine 1 mg/kg IP 4 hours or apocynin 3 mg/kg IP 3 days, 20 eccentric contractions; for eccentric contraction induced force drop (FIG. 13): dimethylaminoparthenolide 50 mg/kg via gavage per day/3 days, Gp91ds-TAT 5 ug/g body weight, 2 doses one day apart
Experimental: as §2
Eccentric contractions were achieved by lengthening the muscle during maximal contraction. This was achieved by translating the footplate 30° at a velocity of 40 mm/s following the first 200 msec of the isometric contraction. This protocol consisted of 20 eccentric contractions with 1 minute pauses in between. The decrease in the peak isometric force prior to the eccentric phase was taken as an indication for muscle damage. To test the role of X-ROS in the functional status of mdx muscle, adult mdx mice were treated with either colchicine (1 mg/kg IP; 4 hours) or apocynin (3 mg/kg IP; 3 days) in vivo to reduce X-ROS signaling followed by a contraction protocol to produce mechanical stress.

[6] = tested on: adult mdx FDB myofibers; assay: Stretch-dependent sarcolemmal Ca2+ influx, fluo-4 fluorescence rate; assay type: cell-based, mouse; settings: adult mdx FDB fibers, acute stretch, GsMTx4 2.5 μM, colchicine 10 μM
Experimental: After euthanasia by CO2 inhalation, flexor digitorum brevis (FDB) muscle was harvested bilaterally and incubated in DMEM with 1 μl/ml gentamicin, and 0.4% collagenase A (Roche Applied Science, Indianapolis, Ind., USA) as described. Single intact myofibers were isolated by gentle trituration. The fibers were imaged and/or fixed for immunolabeling within an 8-h period (unless indicated), thus avoiding morphological changes that can occur in FDB fibers that are cultured for a prolonged period. […]
as §1
Similar to DCF measurements, FDBs were suspended in Ringer's solution containing 5 μM fluo-4-AM (Invitrogen, Carlsbad, Ca) for 30 minutes at room temperature. […] Fluo-4 signal slopes before stretch and after were measured.

[7] = tested on: microtubule network in isolated FDB myofibers; assay: Fluorescence labeling and quantification of α-tubulin (microtubule network density); assay type: cell-based, mouse; settings: FDB fibers; colchicine 10 μM, taxol 10 μM
Experimental: Isolated intact FBDs were plated on ECM gel from Engelbreth-Holm-Swarm murine sarcoma coated imaging dishes (MatTek, Ashland, Mass.). Following treatment, plated myofibers were fixed with 2% paraformaldehyde, permeabilized with 0.1% Triton X-100 in phosphate buffered saline (PBS), blocked in 8% bovine serum albumin in PBS, and then labeled overnight with an antibody to α-tubulin conjugated to Alexa Fluor 488 (anti-mouse; Invitrogen, Carlsbad, Calif., USA). Digital images were obtained with a BioRad Radiance fluorescent laser scanning confocal attached to an Olympus IX-70 inverted microscope. Laser intensity was adjusted on a sample-to-sample basis to maximize amount of microtubules that are visualized. A 35-image Z-stack was taken at 0.5 μm interval and the most representative 9 frames were stacked together using ImageJ (NIH, USA) to form a composite image. Quantification was performed on the binary image representation of the 9-image stack. Background was subtracted uniformly and image was transformed into a binary using ImageJ unbiased binary function. A uniform region of interest was selected and mean intensity measured.

[8] = tested on: wild-type FDB fibers; assay: Cytoskeletal stiffness by axial compression, atomic force microscopy; settings: 10 μM, 2 hrs
[9] = tested on: young wild-type and young mdx FDB muscle fibers; assay: Stretch-induced X-ROS in young fibers after increasing microtubule density; assay type: cell-based, mouse; settings: young wild-type or young mdx fibers, taxol 10 μM
Experimental: All experiments were performed in custom rotating glass-bottom chamber (Four-hour Day Foundation, Towson, Md.) equipped with bath perfusion and mounted on BioRad Radiance fluorescent laser scanning confocal attached to an Olympus IX-70 inverted microscope (Olympus Corp., Centre Valley, Pa.). Cells were attached using micro-tweezers coated with the biological adhesive, MyoTak (Ionoptix, Milton, Mass.) and connected to a high-sensitivity force transducer (KG7) equipped with an anti-oscillation filter and a piezo-electric length controller (World Precision Instruments, Sarasota, Fla.). […]
as §1
ROS was measured using 6-carboxy-2″,7″-dichlorodihydrofluorescein diacetate (DCFH-DA) (Invitrogen, Carlsbad, Calif.) in dimethyl sulfoxide (DMSO). […] DCF fluorescence signals were processed as described (16). […]

[10] = tested on: young WT muscle cells; assay: Stretch Ca2+ entry in young fibers after increasing microtubule density; assay type: cell-based, mouse; settings: young WT treated with taxol
Experimental: Similar to DCF measurements, FDBs were suspended in Ringer's solution containing 5 μM fluo-4-AM (Invitrogen, Carlsbad, Ca) for 30 minutes at room temperature. Fluo-4-loaded cells were mounted on MUST and imaged using confocal line-scanning microscopy at 2 ms/line. Fluo-4 signal slopes before stretch and after were measured.

[11] = tested on: Piezo1; settings: cited from earlier work
Chain of Piezo1 (Q92508 whole entry, species assumed): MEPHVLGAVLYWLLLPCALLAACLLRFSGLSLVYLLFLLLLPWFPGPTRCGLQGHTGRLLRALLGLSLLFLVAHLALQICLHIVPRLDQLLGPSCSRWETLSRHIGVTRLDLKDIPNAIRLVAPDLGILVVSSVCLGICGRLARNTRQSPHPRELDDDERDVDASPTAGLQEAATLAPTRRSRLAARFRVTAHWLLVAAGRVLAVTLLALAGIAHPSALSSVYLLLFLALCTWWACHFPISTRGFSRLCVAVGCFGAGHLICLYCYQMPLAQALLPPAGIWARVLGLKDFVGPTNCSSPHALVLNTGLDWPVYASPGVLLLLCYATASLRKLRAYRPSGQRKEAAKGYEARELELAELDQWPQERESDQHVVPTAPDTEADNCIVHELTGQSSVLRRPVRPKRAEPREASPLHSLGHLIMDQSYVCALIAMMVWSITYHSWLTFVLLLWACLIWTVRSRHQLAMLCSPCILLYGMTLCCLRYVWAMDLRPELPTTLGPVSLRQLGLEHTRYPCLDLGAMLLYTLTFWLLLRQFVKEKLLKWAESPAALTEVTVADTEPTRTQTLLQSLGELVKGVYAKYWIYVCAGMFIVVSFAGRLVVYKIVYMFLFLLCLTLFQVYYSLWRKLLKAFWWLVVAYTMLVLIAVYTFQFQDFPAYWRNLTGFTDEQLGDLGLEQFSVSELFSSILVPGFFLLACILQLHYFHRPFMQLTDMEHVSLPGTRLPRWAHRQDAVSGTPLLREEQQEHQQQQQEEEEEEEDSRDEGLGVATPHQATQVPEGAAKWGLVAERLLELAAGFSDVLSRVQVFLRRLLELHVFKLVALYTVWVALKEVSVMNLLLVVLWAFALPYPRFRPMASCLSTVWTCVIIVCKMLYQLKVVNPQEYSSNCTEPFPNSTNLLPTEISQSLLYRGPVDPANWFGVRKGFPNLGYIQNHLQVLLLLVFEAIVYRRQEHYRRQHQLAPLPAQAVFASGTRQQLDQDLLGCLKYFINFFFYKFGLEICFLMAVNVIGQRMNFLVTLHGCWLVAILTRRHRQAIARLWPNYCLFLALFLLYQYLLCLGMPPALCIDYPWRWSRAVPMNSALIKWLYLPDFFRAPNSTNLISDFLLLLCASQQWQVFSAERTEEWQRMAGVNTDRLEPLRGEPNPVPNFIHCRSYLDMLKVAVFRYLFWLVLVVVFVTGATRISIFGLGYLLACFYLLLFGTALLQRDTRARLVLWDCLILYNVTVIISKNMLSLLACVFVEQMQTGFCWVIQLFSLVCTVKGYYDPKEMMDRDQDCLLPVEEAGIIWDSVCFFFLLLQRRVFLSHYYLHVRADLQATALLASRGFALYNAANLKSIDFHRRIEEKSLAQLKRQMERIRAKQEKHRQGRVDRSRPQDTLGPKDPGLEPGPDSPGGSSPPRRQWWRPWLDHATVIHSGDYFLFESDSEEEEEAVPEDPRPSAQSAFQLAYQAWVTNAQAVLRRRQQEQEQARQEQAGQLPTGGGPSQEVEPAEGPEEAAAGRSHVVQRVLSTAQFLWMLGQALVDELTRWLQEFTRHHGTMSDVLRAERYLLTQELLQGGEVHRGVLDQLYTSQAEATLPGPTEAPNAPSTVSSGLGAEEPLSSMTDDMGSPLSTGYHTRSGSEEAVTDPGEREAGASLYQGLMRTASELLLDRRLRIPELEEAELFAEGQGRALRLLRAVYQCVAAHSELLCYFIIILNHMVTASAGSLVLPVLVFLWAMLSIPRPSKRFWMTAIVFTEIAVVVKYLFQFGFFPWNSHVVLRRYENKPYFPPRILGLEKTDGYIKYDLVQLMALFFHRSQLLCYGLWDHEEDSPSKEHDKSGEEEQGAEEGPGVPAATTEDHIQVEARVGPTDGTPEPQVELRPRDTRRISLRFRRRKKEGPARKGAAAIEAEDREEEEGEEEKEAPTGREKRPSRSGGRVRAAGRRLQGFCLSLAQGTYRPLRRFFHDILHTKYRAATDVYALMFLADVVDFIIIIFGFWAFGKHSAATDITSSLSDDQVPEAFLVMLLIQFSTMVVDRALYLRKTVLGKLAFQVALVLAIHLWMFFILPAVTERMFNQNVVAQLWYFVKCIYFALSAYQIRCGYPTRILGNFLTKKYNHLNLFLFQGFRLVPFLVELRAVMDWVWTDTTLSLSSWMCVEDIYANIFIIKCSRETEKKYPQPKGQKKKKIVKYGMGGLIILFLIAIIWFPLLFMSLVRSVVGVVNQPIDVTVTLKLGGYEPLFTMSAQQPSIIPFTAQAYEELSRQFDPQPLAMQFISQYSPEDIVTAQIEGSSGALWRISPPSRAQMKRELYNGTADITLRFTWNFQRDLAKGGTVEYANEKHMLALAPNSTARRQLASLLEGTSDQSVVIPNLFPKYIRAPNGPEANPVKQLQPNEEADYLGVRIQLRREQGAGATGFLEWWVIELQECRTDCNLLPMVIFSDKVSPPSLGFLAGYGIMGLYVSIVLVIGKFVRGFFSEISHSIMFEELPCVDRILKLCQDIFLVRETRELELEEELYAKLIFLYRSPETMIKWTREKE

[12] = target: Piezo2 (Homo sapiens, UniProt Q9H5I5); settings: cited from earlier work
[13] = tested on: wild-type FDB fibers; assay: Stretch activated calcium influx, Mn quench assay; settings: parthenolide 10 uM 2 hrs, Gp91ds-TAT 1 uM 30 minutes

In the case of `CCN(CC)CCCC(C)Nc1nc(C)cc(Nc2ccc3nc(C)cc(N)c3c2)n1` (racemic) [Rac1 inhibitor], the “stretch-induced ROS production (X-ROS)” value [1] was “effective at abrogating X-ROS; also recorded: ameliorated the stretch-induced ROS production”.
In the case of `COC(=O)[C@@H](N)CCCNC(=N)N[N+](=O)[O-]` [L-NAME], the “stretch-induced ROS production (X-ROS)” value [1] was “had no effect”.
For `COc1cc(C(C)=O)ccc1O` [apocynin], the “isometric contraction induced force loss” value [2] is listed as “significant protection from force loss; also recorded: significantly decreased the isometric contraction induced force loss”, the “eccentric contraction induced force drop in wild-type mice” value ([3]; WT mice, gastrocnemius, 18 eccentric contractions) is listed as “significantly decreased the eccentric contraction induced force loss” and the “translocation of cytosolic p47phox and p67phox proteins / inactivation of NOX” value [4] is listed as “inhibit translocation”. The “eccentric contraction induced force loss” value [5] was “significantly ameliorated the contraction induced force drop; also recorded: significant protection from force loss; also recorded: significantly reduced contraction induced force loss”.
With `COc1cc2c(c(OC)c1OC)-c1ccc(OC)c(=O)cc1[C@@H](NC(C)=O)CC2` [colchicine] the “stretch-induced ROS production (X-ROS)” value [1] was “prevented the increase in X-ROS; also recorded: little X-ROS; also recorded: ameliorated the stretch-induced ROS production”, the “stretch dependent sarcolemmal Ca2+ influx” value [6] was “inhibited; also recorded: prevented; also recorded: little X-ROS and Ca^2+ entry; also recorded: ablated” and the “microtubule density (α-tubulin IHC)” value [7] was “decreased; also recorded: ablated the majority of the cytoskeletal structure”. For the same compound, the “isometric contraction induced force loss” value [2] was “significant protection from force loss; also recorded: significantly decreased the isometric contraction induced force loss”, the “eccentric contraction induced force drop in wild-type mice” value ([3]; mouse, in vivo) was “significantly decreased the eccentric contraction induced force loss” and the “eccentric contraction induced force loss” value [5] was “significantly ameliorated the contraction induced force drop; also recorded: significant protection from force loss; also recorded: significantly reduced contraction induced force loss”. The cytoskeletal stiffness [8] was “equally effective at decreasing cytoskeletal stiffness”.
For `C/C1=C\CC[C@@]2(C)O[C@@H]2[C@H]2OC(=O)[C@H](CN(C)C)[C@@H]2CC1` [dimethylaminoparthenolide], the “isometric contraction induced force loss” value [2] was “significantly decreased the isometric contraction induced force loss”, the “eccentric contraction induced force drop (FIG. 13)” value [5] was “ameliorated the force drop” and the “eccentric contraction induced force drop (FIG. 13)” value ([5]; listed as LC-1) was “reduced eccentric contraction induced force drop”.
With `C/C1=C/C(=O)O[C@@H]2C[C@@H](CC[C@H](C)/C=C\C=C\CC1)O[C@@](O)([C@@H]1CSC(=O)N1)C2` [latrunculin A] the “stretch-induced ROS production (X-ROS)” value [1] was “had no effect” and the “stretch-induced ROS production (X-ROS)” value ([1]; listed as latrunuculin A) was “no significant effect”.
In the case of `CC(=O)O[C@H]1C(=O)[C@@]2(C)[C@H]([C@H](OC(=O)c3ccccc3)[C@]3(O)C[C@H](OC(=O)[C@H](O)[C@@H](NC(=O)c4ccccc4)c4ccccc4)C(C)=C1C3(C)C)[C@]1(OC(C)=O)CO[C@@H]1C[C@@H]2O` [taxol], the “microtubule density (α-tubulin IHC)” value [7] was “increased”, the “X-ROS in young fibers” value [9] was “exuberant X-ROS; also recorded: made X-ROS competent” and the “Ca2+ entry in young fibers” value [10] was “exuberant X-ROS and Ca^2+ entry”.
For “GsMTx4: mechano-sensitive (stretch activated) channel blocker (GCLEFWWKCNPNDDKCCRPKLKCSKLFKLCNFSF; ends and bridges not checked; cysteine pairing not given here; UniProt Q7YT39 47-80, looked up)”, the “stretch dependent sarcolemmal Ca2+ influx” value [6] is listed as “inhibited; also recorded: prevented; also recorded: ablated”, the “inhibition of Piezo1 channel” value [11] is listed as “inhibited” and the “inhibition of Piezo2 channel” value [12] is listed as “inhibited”. For the same compound, the “stretch activated calcium influx” value [13] was “significantly reduced stretch activated Ca^2+ influx”.
With fulvene-5 the “stretch-induced ROS production (X-ROS)” value [1] was “verified NOX2 as the source of the stretch dependent ROS” and the “stretch-induced ROS production (X-ROS)” value ([1]; listed as Fulvene 5) was “effective at abrogating X-ROS”.

Reference: US20140256644A1, “Treatment of Muscular Conditions and Muscular Dystrophies” (priority 2011, published 2014)
